Laboratory results from publication PMC8398766, “Do Small Molecules Activate the TrkB Receptor in the Same Manner as BDNF? Limitations of Published TrkB Low Molecular Agonists and Screening for Novel TrkB Orthosteric Agonists” (Pharmaceuticals, 2021).
“Also recorded” adds a separate entry of the source.

B1: BDNF: Brain-derived neurotrophic factor, endogenous TrkB receptor agonist (protein, UniProt P23560 19-247, looked up)
Neurotrophic factor BDNF …: APMKEANIRGQGGLAYPGVRTHGTLESVNGPKAGSRGLTSLADTFEHVIEELLDEDQKVRPNEENNKDADLYTSRVMLSSQVPLEPPLLFLLEEYKNYLDAANMSMRVRRHSDPARRGELSVCDSISEWVTAADKKTAVDMSGGTVTVLEKVPVSKGQLKQYFYETKCNPMGYTKEGCRGIDKRHWNSQCRTTQSYVRALTMDSKKRIGWRFIRIDTSCVCTLTIKRGR

Columns and labels:
Format in all cases: cell-based
[1] = system: TrkB and downstream proteins (PLCγ1, Akt1, ERK1/2); experiment: Downstream signaling immunoblot, SN56 T48 cell line; settings: for Phosphorylation of TrkB and downstream proteins (PLCγ1, Akt1, ERK1/2): compounds up to 100 μM, BDNF up to 100 ng/mL, 15 min
Experimental: The SN56 T48 cell line with stable overexpression of the TrkB receptor was purchased from Emory University (Atlanta, GA, USA) and cultivated according to the protocol described in Jang et al., 2010 [12]. The cell lines were cultivated with the following reagents: DMEM High Glucose, fetal bovine serum (FBS), Penicillin-Streptomycin Solution 100×, and Trypsin-EDTA 1×; all were purchased from Biowest, and G418 was from ThermoFisher Scientific. For the ELFI experiments, cells were seeded (8000/well) on a PDL-treated 96-well plate (BioCoat™, Corning Inc., Corning, NY, USA) and 6-well plate (400,000/well) for lysate collection and immunoblot analysis.
(§1) On the day of the experiments, cells were starved for 5 h with appropriate culture medium. SN56 T48 cells were treated with reference compounds at 100 μM or 1, 10, or 100 μM concentrations of the selected molecules, and 1, 10, and 100 ng/mL of BDNF. Differentiated SH-SY5Y cells were treated with 1, 10, or 100 μM concentrations of the tested molecules and 1, 10, and 100 ng/mL of BDNF for 15 min. For compound specificity, the evaluation cell lines were first pretreated with 1 μM K252a (MilliporeSigma, Saint Louis, MO, USA) for 15 min and then cotreated with 100 μM concentrations of the tested molecules.
(§2) Compound treatment was stopped by lysing cells with N-PER™ Neuronal Protein Extraction Reagent (Thermo Fisher Scientific) containing 1 × PhosSTOP™ (Roche, Basel, Switzerland), 1 × Halt Protease Inhibitor Single-Use Cocktail (ThermoFisher Scientific) and 5 mM EDTA. The lysates were collected by scraping, and centrifuged (8000× g; 10 min at 4 °C), and the protein concentration was determined using a BCA Pierce kit (ThermoFisher Scientific). The lysates were stored at −80 °C until further processing. Samples containing 20 μg of protein were further denatured in 4 × Laemli Buffer with 5% β-mercaptoethanol at 95 °C for 5 min and electrophoresed on gels prepared using a 10% TGX Stain-Free™ FastCast™ Acrylamide Kit (Bio-Rad). Afterwards, the proteins were transferred (wet transfer, 100 V, 60 min) onto nitrocellulose membranes (GE Healthcare, Chicago, IL, USA), which were blocked in 5% BSA in TBS-T (TBS + 0.1% Tween20) for 2 h. […] After repeated washes (TBS-T), the proteins were detected with HRP-conjugated anti-rabbit antibodies (1:4000, RT, 2 h) (Cell Signaling Technology), and the blots were incubated with Clarity Max ECL Western Blotting Substrate (Bio-Rad). Blot images and chemiluminescence signals were captured using a ChemiDoc MP Imaging System, and densitometry values were calculated using the Image Lab software (Bio-Rad). […]

[2] = system: TrkB and downstream proteins (PLCγ1, Akt1, ERK1/2); experiment: Downstream signaling immunoblot, RA-differentiated SH-SY5Y cell line; settings: for Phosphorylation of TrkB and downstream proteins (PLCγ1, Akt1, ERK1/2): RA-differentiated SH-SY5Y, 1, 10, 100 μM, 15 min
Experimental: The SH-SY5Y cell line was purchased from MilliporeSigma and cultured in growth medium: MEM (w/Earle’s Salts; w/L-Glutamine) + Ham’s F12 (w/L-Glutamine) (1:1 v/v), 1 × Antibiotic-Antimycotic, 1 × MEM Non-Essential Amino Acids (all reagents from Biowest, Riverside, MO, USA) and 15% FBS (Gibco, Thermo Fisher Scientific, Waltham, MA, USA). Cells were passaged using 0.25% Trypsin-EDTA (Biowest) and cultured in standard conditions (5% CO2, 37 °C with 95% relative humidity).
(§3) To differentiate SH-SY5Y, cells were seeded in a cell culture flask at a density of 10,000 cells/cm^2 in standard growth medium containing 10 μM retinoic acid (RA; MilliporeSigma) and cultured for 7 consecutive days. Then, differentiated cells were harvested by trypsinization (Trypsin-EDTA 1×, 3 min at 37 °C), centrifuged (250× g; 5 min at 25 °C) and counted. The desired experiment cells were seeded in differentiation medium (MEM:Ham’s F12 growth medium +10 μM RA) in multi-well plates at the following densities: 1,000,000 cells/well on a 6-well plate for lysate collection and immunoblot analysis, and 12,000 cells/well into a PDL-treated 96-well plate (BioCoat™, Corning Inc.) for neuroprotection experiments.
as §1, §2

[3] = system: RA-differentiated SH-SY5Y cells; experiment: Cytoprotection against MPP+-induced cytotoxicity; settings: MPP+ 0.5 mM, compounds 0.3, 1, 3 μM, BDNF 1, 10, 100 ng/mL, 72 h + 72 h
Experimental: as §3
The experiment design was adopted from the article published by Presgraves et al., (2004), with the following modifications. Differentiated SH-SY5Y were prepared as described in Section 4.3.1. On the day of the experiment (Day 0), culture medium containing 10 μM RA was changed for treatment medium composed of MEM:HAM’S F12 (1:1 v/v), 1 × Antibiotic-Antimycotic, and 1 × MEM Non-Essential Amino Acids, with the FBS reduced to 0.5%. In this step, RealTime-Glo™ reagents (Promega, Madison, WI, USA) were added to the treatment medium (to a final concentration of 0.5 × ). Cell viability was measured after 1 h of incubation at 37 °C using a luminometer (VICTOR Light 1420-060) for normalization. Then, the tested compounds and BDNF were diluted in culturing medium as 2 × concentrate (final concentrations of 0.3, 1, and 3 μM for the small molecular compounds and 1, 10, and 100 ng/mL for BDNF) and added into wells for 72 h of incubation (volume, 100 μL/well). Then (Day 3), the treatment medium was replaced with fresh medium containing 0.5 × RealTime-Glo™ reagents (volume, 100 μL/well), and the cell viability was measured for normalization. Then, compounds and BDNF were added as 4 × concentrates (volume, 50 μL/well). In addition, MPP^+ was also diluted in treatment medium and added to the wells as a 4 × concentrate (final concentration, 0.5 mM; volume, 50 μL/well). The cells were incubated for a further 72 h at 37 °C. On Day 6, the cell viability was measured 1 h after replacing the medium with the medium containing 0.5 × RealTime-Glo™ (volume 100 μL/well). The experiments were performed with three biological independent replicates, and the final cell viability (endpoint, Day 6) was normalized to the normalized cell viability calculated on Day 3.

| Molecule | Activation of downstream proteins (Akt1 and ERK1/2) after inhibition of TrkB kinase by K252a ([1]; K252a 1 μM 15 min before 100 μM compound) | Phosphorylation of TrkB and downstream proteins (PLCγ1, Akt1, ERK1/2) [1] | Phosphorylation of TrkB and downstream proteins (PLCγ1, Akt1, ERK1/2) [2] | Cytoprotective effect (cell viability) [3] | Cytoprotective effect (cell viability) ([3]; listed as CPL503051) | Effect of cotreatment with K252a on the compound's effects ([2]; K252a 1 μM) |
| --- | --- | --- | --- | --- | --- | --- |
| O=C1C(O)=C(c2c[nH]c3ccccc23)C(=O)C(O)=C1c1c[nH]c2ccccc12 [CPL503052, didemethylasterriquinone D] | did not repress | demonstrated the activation of the TrkB receptor and phosphorylation of relevant downstream proteins | able to induce the phosphorylation of TrkB, Akt1, ERK1/2, and PLCγ1 | no cytoprotective properties | did not demonstrate any cytoprotective effect | – |
| C=CC(C)(C)c1[nH]c2ccccc2c1C1=C(O)C(=O)C(c2c[nH]c3c(CC=C(C)C)cccc23)=C(O)C1=O [DMAQ-B1] | – | – | able to induce the phosphorylation of TrkB, Akt1, ERK1/2, and PLCγ1 | did not demonstrate any cytoprotective effect | – | did not inhibit |
| O=c1cc(-c2ccccc2)oc2c(O)c(O)ccc12 [7,8-DHF, 7,8-dihydroxyflavone] | – | did not induce; also recorded: lack of 7,8-DHF activity | did not result in the expected effect; also recorded: lack of 7,8-DHF activity | not able to protect; also recorded: not able to confirm any cytoprotective action | – | – |
| B1 | – | significantly increased phosphorylation | induced the TrkB receptor and phosphorylation of downstream proteins | dose-dependent cytoprotective effect | – | – |
